Measured values from PMC5540273, “Progress towards a public chemogenomic set for protein kinases and a call for contributions” (PLoS ONE, 2017).

Columns and labels:
Assay in all cases: KINOMEscan competition binding
MAK = target: T1, MAK (Homo sapiens, UniProt P20794); conditions: read-out: %Inh MAK
T1 sequence (P20794 1-623): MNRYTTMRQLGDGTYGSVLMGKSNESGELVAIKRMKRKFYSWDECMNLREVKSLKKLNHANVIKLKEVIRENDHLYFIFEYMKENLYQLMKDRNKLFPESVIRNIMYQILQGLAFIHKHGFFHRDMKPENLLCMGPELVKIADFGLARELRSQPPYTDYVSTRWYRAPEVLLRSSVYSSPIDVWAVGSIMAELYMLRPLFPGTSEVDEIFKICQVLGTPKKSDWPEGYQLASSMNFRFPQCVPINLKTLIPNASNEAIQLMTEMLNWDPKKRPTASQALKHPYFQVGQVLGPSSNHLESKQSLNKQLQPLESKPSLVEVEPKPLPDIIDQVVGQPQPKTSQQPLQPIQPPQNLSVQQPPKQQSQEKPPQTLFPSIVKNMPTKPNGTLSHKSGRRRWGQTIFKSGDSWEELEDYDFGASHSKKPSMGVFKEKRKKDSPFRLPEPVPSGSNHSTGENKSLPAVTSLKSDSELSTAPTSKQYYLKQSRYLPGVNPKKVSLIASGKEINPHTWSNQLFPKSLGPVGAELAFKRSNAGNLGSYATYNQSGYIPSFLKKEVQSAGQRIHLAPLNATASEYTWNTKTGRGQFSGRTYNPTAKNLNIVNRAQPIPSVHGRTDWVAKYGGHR

CAMK4 = target: T2, CAMK4 (Homo sapiens, UniProt Q16566); conditions: read-out: %Inh CAMK4
T2 sequence (Q16566 1-473): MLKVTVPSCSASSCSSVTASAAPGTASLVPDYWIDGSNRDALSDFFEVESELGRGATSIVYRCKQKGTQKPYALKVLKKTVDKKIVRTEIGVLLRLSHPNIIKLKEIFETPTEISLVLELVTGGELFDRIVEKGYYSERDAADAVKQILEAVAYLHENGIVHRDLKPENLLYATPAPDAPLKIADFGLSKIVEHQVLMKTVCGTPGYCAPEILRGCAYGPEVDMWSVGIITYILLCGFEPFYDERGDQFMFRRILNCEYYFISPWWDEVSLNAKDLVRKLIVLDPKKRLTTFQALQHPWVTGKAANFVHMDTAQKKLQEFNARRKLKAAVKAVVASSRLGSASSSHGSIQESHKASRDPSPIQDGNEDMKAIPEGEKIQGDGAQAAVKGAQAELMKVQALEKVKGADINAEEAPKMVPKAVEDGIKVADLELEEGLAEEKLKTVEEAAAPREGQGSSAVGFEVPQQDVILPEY

ERK1 = ERK1 (Homo sapiens, UniProt P27361); conditions: read-out: %Inh ERK1
AMPK-alpha2 = AMPK-alpha2 (Homo sapiens, UniProt P54646); conditions: read-out: %Inh AMPK-alpha2
[1] = target: JAK1(JH2domain-pseudokinase) (Homo sapiens, UniProt P23458); conditions: read-out: %Inh JAK1(JH2domain-pseudokinase)
EPHA2 = EPHA2 (Homo sapiens, UniProt P29317); conditions: read-out: %Inh EPHA2
GCN2(Kin.Dom.2,S808G) = target: T3, GCN2(Kin.Dom.2,S808G) (Homo sapiens, UniProt Q9P2K8, S808G); conditions: read-out: %Inh GCN2(Kin.Dom.2,S808G)
T3 sequence (Q9P2K8 590-1001 S808G limits assumed): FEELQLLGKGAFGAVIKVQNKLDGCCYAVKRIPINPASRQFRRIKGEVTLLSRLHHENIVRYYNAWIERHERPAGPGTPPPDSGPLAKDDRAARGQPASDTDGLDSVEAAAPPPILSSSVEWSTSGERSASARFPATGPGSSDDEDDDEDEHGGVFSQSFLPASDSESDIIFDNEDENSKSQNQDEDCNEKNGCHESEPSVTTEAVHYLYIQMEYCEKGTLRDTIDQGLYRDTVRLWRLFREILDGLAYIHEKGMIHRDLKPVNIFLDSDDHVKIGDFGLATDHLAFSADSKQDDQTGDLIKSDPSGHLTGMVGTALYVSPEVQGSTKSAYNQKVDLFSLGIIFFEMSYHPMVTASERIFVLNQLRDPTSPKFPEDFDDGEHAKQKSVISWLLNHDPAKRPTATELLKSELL

CLK1 = CLK1 (Homo sapiens, UniProt P49759); conditions: read-out: %Inh CLK1
DYRK2 = target: T4, DYRK2 (Homo sapiens, UniProt Q92630); conditions: read-out: %Inh DYRK2
T4 sequence (Q92630 1-601): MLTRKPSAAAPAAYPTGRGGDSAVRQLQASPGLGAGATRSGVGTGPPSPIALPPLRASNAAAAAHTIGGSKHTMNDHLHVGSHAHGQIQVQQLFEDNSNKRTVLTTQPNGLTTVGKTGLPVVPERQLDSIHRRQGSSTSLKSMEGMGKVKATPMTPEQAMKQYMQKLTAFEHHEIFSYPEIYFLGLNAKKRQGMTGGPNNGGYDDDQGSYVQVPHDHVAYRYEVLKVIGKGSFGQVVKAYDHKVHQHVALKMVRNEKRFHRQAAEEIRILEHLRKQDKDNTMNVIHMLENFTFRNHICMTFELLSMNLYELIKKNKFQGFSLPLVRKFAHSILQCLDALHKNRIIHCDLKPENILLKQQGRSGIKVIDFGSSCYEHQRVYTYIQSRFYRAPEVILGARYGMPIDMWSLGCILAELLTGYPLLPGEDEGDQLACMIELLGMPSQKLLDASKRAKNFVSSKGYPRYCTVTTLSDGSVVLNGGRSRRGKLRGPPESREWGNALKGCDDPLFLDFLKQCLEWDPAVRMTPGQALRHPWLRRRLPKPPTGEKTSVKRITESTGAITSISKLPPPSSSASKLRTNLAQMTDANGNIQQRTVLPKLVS

ACVR2A = ACVR2A (Homo sapiens, UniProt P27037); conditions: read-out: %Inh ACVR2A
CSNK2A2 = CSNK2A2 (Homo sapiens, UniProt P19784); conditions: read-out: %Inh CSNK2A2
KIT = KIT (Homo sapiens, UniProt P10721); conditions: read-out: %Inh KIT

Structure (SMILES)	inhibition at 1 µM (MAK)	inhibition at 1 µM (CAMK4)	inhibition at 1 µM (ERK1)	inhibition at 1 µM (AMPK-alpha2)	inhibition at 1 µM [1]	inhibition at 1 µM (EPHA2)	inhibition at 1 µM (GCN2(Kin.Dom.2,S808G))	inhibition at 1 µM (CLK1)	inhibition at 1 µM (DYRK2)	inhibition at 1 µM (ACVR2A)	inhibition at 1 µM (CSNK2A2)	inhibition at 1 µM (KIT)
COc1cccc(OC)c1C(=O)Nc1cccc(-c2nn3ccccc3c2-c2ccnc(Nc3cccc(F)c3)n2)c1 [UNC10225310A]	14%	0%	1%	4%	4%	11%	0%	21%	0%	7%	23%	90.9%
Cc1ccc(NC(=O)Nc2cccc(C(F)(F)F)c2)cc1 [UNC10225187A]	0%	5%	0%	0%	12%	0%	0%	3%	0%	2%	0%	91.4%
O=c1cc(N2CCOCC2)nc2n(Cc3cccc(Cl)c3Cl)c(C3CC3)nn12 [UNC10225469A]	0%	5%	0%	0%	3%	0%	0%	27%	1%	0%	0%	0%
CS(=O)(=O)Cc1ccc(Nc2nccc(-c3c(-c4cccc(NC(=O)C5CCCCC5)c4)nn4ncccc34)n2)cc1 [UNC10225159A]	0%	0%	2%	2%	0%	51%	0%	10%	5%	0%	1%	88%
Cn1cc(-c2cnc(N)c3c(-c4ccc5c(c4)CCN5C(=O)Cc4ccccc4)csc23)cn1 [UNC10225012A]	0%	0%	0%	0%	0%	0%	91.2%	15%	8%	0%	1%	100%
